Laboratory results published in patent US9695127B2, “Compounds for treating HIV and methods for using the compounds” (University of Pittsburgh—Of the Commonwealth System of …, priority 2012, dated 2017).

Columns and labels:
wild-type HIV-1 NL4-3 = assay: HIV-1 replication in U87MG cells (p24 ELISA); assay type: cell-based; details: for inhibition at 3 µM: Human immunodeficiency virus 1, NL43, U-87 MG, 96 h, read-out: REPLICATION @ 3 μM % Inhibition vs. DMSO control; for REPLICATION @ 3 μM % Inhibition vs. DMSO control: U87MG cells
Text: In particular disclosed embodiments, the compound may be used to block Nef-dependent HIV replication and infectivity. FIG. 7 illustrates the chemical structures of the compounds identified by the Nef:Hck HTS campaign and subsequently shown to block Nef-dependent enhancement of HIV-1 replication in two different cell lines are shown, along with the IC50 values for each compound against Hck alone vs. the Nef:Hck complex. FIG. 8 illustrates results concerning HIV replication. […] Viral output for the DMSO-treated control cultures was consistently greater than 100-fold over the HIV input, typically ranging from 9,000-12,000 p24 equivalents/ml. Virus replication was assessed by p24 ELISA after 4 days (U87MG) or 9 days (CEM-T4). Data are expressed as the mean percent inhibition as compared to control cultures incubated with the carrier solvent (DMSO)±S.E.M. (n=4). Results of replication and cytotoxicity experiments with all certain hit compounds from the primary screen are shown in FIG. 3 and FIG. 4. FIG. 9 concerns infectivity assays. Compounds (3 μM) were added to cultures of the reporter cell line TZM-b1 followed by infection with either wild-type or Nef-defective (ΔNef) HIV NL4-3 in 96-well plates. After 48 hours, relative virus infectivity was assessed as luciferase production in infected cells. Results are plotted as the mean percent of HIV-1 infectivity observed in control cells incubated with the carrier solvent DMSO±S.E.M. (n=3). In the absence of Nef, infectivity is reduced by about 50% (ΔNef; dashed line shown for reference).
(§1) HIV assays: Viral stocks were prepared by transfection of 293T cells (ATCC) with wild-type and Nef-defective (ΔNef) proviral genomes (NL4—3 strain) and amplified in the T-cell line, MT2 (NIH AIDS Research and Reference Reagent Program). Viral replication was assessed in the U87MG astroglioma cell line engineered to express the HIV-1 co-receptors CD4 and CXCR4 or in the T-lymphoblast cell line, CEM-T4. Both the U87 MG and CEM-T4 cell lines support HIV-1 replication in a Nef-dependent manner, and were obtained from the NM AIDS Research and Reference Reagent Program. Compounds were solubilized in DMSO, and added to the cell culture medium 1 h prior to infection with HIV. Viral replication was monitored for either 4 days (U87MG) or 9 days (CEM-T4) by measuring p24 Gag protein levels in the culture supernatant using standard ELISA-based techniques. HIV-1 infectivity was measured using the reporter cell line, TZM-b1 (NM AIDS Research and Reference Reagent Program). Cells were grown in 96-well plates (2.5×10^4) 8 h prior to virus infection to permit adherence. Compounds were pre-incubated with wild-type HIV-1 for 4 h prior to addition to the cells in a final volume of 200 μl. After 48 h at 37° C., the cells were washed with PBS and lysed in luciferase lysis buffer (Promega) by rocking for 15 min Lysates (40 μl) were transferred to white 96-well plates and 50 μl luciferase reagent (Promega) was injected into each well. Readings were recorded with a delay time of 2 sec and an integration period of 10 sec.

HIV-1 NL4-3 = assay: HIV-1 infectivity in TZM-b1 reporter cells (luciferase); assay type: cell-based; details: for inhibition at 3 µM: Human immunodeficiency virus 1, NL43, TZM-b1, 48 h, read-out: INFECTIVITY @ 3 μM % Inhibition vs. DMSO control; for INFECTIVITY @ 3 μM % Inhibition vs. DMSO control: TZM-b1 reporter cells
Description: Compounds (1 μM) shown in FIG. 7 were added to cultures of U87MG and CEM-T4 cells in 96-well plates, followed by infection with wild-type HIV-1 NL4-3 (50 pg p24 equivalents/ml) 1 hour later. […] Virus replication was assessed by p24 ELISA after 4 days (U87MG) or 9 days (CEM-T4). Data are expressed as the mean percent inhibition as compared to control cultures incubated with the carrier solvent (DMSO)±S.E.M. (n=4). […] FIG. 9 concerns infectivity assays. Compounds (3 μM) were added to cultures of the reporter cell line TZM-b1 followed by infection with either wild-type or Nef-defective (ΔNef) HIV NL4-3 in 96-well plates. After 48 hours, relative virus infectivity was assessed as luciferase production in infected cells. […]
as §1, with “Both the U87 MG and CEM-T4 cell lines support HIV-1 replication in a Nef-dependent manner, and were obtained from the NM AIDS Research and Reference Reagent Program.” left out

[1] = Preliminary pharmacokinetics in C3H mice; details: for T1/2: i.v., 2 mg/kg; for % F (oral bioavailability): p.o., 10 mg/kg
Description: Compounds were administered to male C3H mice via the i.v. and p.o. routes, and plasma concentrations were assessed by LC-MS/MS at the time points indicated. Plasma levels were determined for three mice at each time point and are shown as the mean±S.D.

cell-surface CD4 = assay: Nef-induced CD4 downregulation in CEM-GFP cells (flow cytometry); assay type: cell-based; details: CEM-GFP cells infected with HIV-1 WT NL43, 8 days
Description: (§2) CEM-GFP cells were treated for 4 hrs with compounds or DMSO (control), then infected with 100 pg/ml HIV-1 WT NL43 or 500 pg/ml ΔNef-NL43.
Percentages on the flow diagrams (FIGS. 33A-33E) show percent of cells positive for CD4.

cell-surface MHC-I = assay: Nef-induced MHC-I downregulation in CEM-GFP cells (flow cytometry); assay type: cell-based; details: CEM-GFP cells infected with HIV-1 WT NL43, 8 days
Description: as §2

| SMILES | inhibition at 3 µM (wild-type HIV-1 NL4-3) [%] | inhibition at 3 µM (HIV-1 NL4-3) [%] | further results |
| --- | --- | --- | --- |
| COc1ccc(-c2n[nH]c(O)c2CCc2cccc(Cl)c2)cc1 [JV-1-59-1] | 30.1 | 0 |  |
| N=C(N)n1nc(-c2ccc([N+](=O)[O-])cc2)c(CCc2cccc(Cl)c2)c1O [JV-1-62-2-1] | 53.2 | 0 |  |
| COc1ccc(-c2nn(C(=N)N)c(O)c2CCc2ccc(F)cc2)cc1 [JV-1-74-1] | 27.8 | 0 |  |
| COc1ccc(-c2nn(C3=NCCN3)c(O)c2CCc2ccc(F)cc2)cc1 [JV-1-74-2] | 46.8 | 36.7 |  |
| COc1ccc(-c2nn(-c3ccccc3)c(O)c2CCc2ccc(F)cc2)cc1 [JV-1-79] |  |  | REPLICATION @ 3 μM % Inhibition vs. DMSO control (wild-type HIV-1 NL4-3): Toxic; INFECTIVITY @ 3 μM % Inhibition vs. DMSO control (HIV-1 NL4-3): Toxic |
| COc1ccc(-c2nn(-c3ccccn3)c(O)c2CCc2ccc(F)cc2)cc1 [JV-1-80] |  |  | REPLICATION @ 3 μM % Inhibition vs. DMSO control (wild-type HIV-1 NL4-3): Toxic; INFECTIVITY @ 3 μM % Inhibition vs. DMSO control (HIV-1 NL4-3): Toxic |
| N=C(N)n1nc(C2CC2)c(CCc2ccc(F)cc2)c1O [JV-1-89] |  |  | REPLICATION @ 3 μM % Inhibition vs. DMSO control (wild-type HIV-1 NL4-3): 56.1%; INFECTIVITY @ 3 μM % Inhibition vs. DMSO control (HIV-1 NL4-3): 28.0% |
| N=C(N)n1nc(-c2ccoc2)c(CCc2ccc(F)cc2)c1O [JV-1-96] |  |  | REPLICATION @ 3 μM % Inhibition vs. DMSO control (wild-type HIV-1 NL4-3): Toxic; INFECTIVITY @ 3 μM % Inhibition vs. DMSO control (HIV-1 NL4-3): 11.0% |
| NC(=S)n1nc(-c2ccc([N+](=O)[O-])cc2)c(CCc2cccc(Cl)c2)c1O [JZ-1-96-2-1] |  | 59.5 | REPLICATION @ 3 μM % Inhibition vs. DMSO control (wild-type HIV-1 NL4-3): Toxic; T1/2 [1]: 1.53 h; % F (oral bioavailability) [1]: 85% |
| NC(=S)n1nc(-c2ccc([N+](=O)[O-])cc2)c(Cc2cccc(Cl)c2)c1O [JZ-1-97-2-1] | 51.6 | 56.6 | Reversal of Nef-mediated CD4 downregulation (cell-surface CD4): reverse Nef-mediated CD4 downregulation to the same extent observed in cells infected with Nef-defective HIV-1; T1/2 [1]: 1.66 h; % F (oral bioavailability) [1]: 57%; Reversal of Nef-mediated MHC-I downregulation (cell-surface MHC-I): reverse Nef-mediated MHC-I downregulation to the same extent observed in cells infected with Nef-defective HIV-1 |
| O=[N+]([O-])c1ccc(-c2n[nH]c(O)c2Cc2cccc(Cl)c2)cc1 [JZ-1-97-2-2] | 0 | 12.7 |  |
| NC(=O)n1nc(-c2ccc(F)cc2)c(/N=N/c2cccnc2)c1O [JZ-1-101] | 0 | 0 |  |
| NC(=O)n1nc(-c2ccc(F)cc2)c(/N=N/c2cncc(Cl)c2)c1O [JZ-1-106] | 0 | 3.5 |  |
| NC(=S)n1nc(-c2ccc(F)cc2)c(/N=N/c2cncc(Cl)c2)c1O [JZ-1-107] | 0 | 19.7 |  |
| Oc1[nH]nc(-c2ccc(F)cc2)c1/N=N/c1cccnc1 [JZ-1-110-1] | 0 | 3.3 |  |
| Oc1[nH]nc(-c2ccc(F)cc2)c1/N=N/c1cncc(Cl)c1 [JZ-1-110-2] | 19.3 | 0 |  |
| COc1cccc(CCc2c(-c3ccc([N+](=O)[O-])cc3)nn(C(=N)N)c2O)c1 [JZ-1-135-1] | 54.1 | 9.5 |  |
| N=C(N)n1nc(-c2ccccn2)c(CCc2cccc(Cl)c2)c1O [JZ-1-135-2] |  | 0 | REPLICATION @ 3 μM % Inhibition vs. DMSO control (wild-type HIV-1 NL4-3): Toxic |
| N=C(N)n1nc(-c2ccc(C(F)(F)F)cc2)c(Cc2ccc(F)cc2)c1O [JZ-1-177] |  | 0 |  |
| Oc1c(Cc2ccc(F)cc2)c(-c2ccc(F)cc2)nn1-c1ccccn1 [JZ-1-178] | 0 | 34.7 |  |
| Oc1[nH]nc(-c2ccc(C(F)(F)F)cc2)c1Cc1ccc(F)cc1 [JZ-1-179-2] |  | 0 |  |
| N=C(N1CCOCC1)n1nc(-c2ccc(C(F)(F)F)cc2)c(Cc2ccc(F)cc2)c1O [JZ-1-180] |  | 0 |  |
| NC(=S)n1nc(-c2ccc([N+](=O)[O-])cc2)c(/N=N/c2ccc(Cl)cc2)c1O [KM-1-46] | 43.6 | 37.2 |  |
| NC(=S)n1nc(-c2ccc([N+](=O)[O-])cc2)c(/N=N/c2ccccc2Cl)c1O [KM-1-48] |  | 19.3 |  |
| C(=C\c1c[nH]nc1-c1ccccc1)/c1ccccc1 [Vit-3f] |  | 0 |  |
